{"source": "patent US20040157910A1", "about": "“Method of treatment or prophylaxis” (SmithKline Beecham Corporation, priority 2003, published 2004)", "key": {"[1]": {"tested_on": "Restless Legs Syndrome", "assay": "RLS patients treated with ropinirole (patient reports)", "assay_type": "in vivo, human", "details": "almost at once"}, "[2]": {"tested_on": "Restless Legs Syndrome", "details": "RLS; well controlled studies prior to 1987; cited from earlier work"}, "[3]": {"tested_on": "Restless Legs Syndrome", "details": "RLS, cited from earlier work"}}, "note": "Structures can show the parent of a compound that is named as a salt.", "data": [{"smiles": "CCCN(CCC)CCc1cccc2c1CC(=O)N2", "note": "[ropinirole, 4-[2-(di-n-propylamino)ethyl]-1,3-dihydro-2H-indolin-2-one hydrochloride]", "values": [{"measurement": "improvement in condition reported by RLS patients", "setting": "[1]", "result": "dramatic improvement"}]}, {"smiles": "NC(=O)N1c2ccccc2C=Cc2ccccc21", "note": "[carbamazepine]", "values": [{"measurement": "efficacy compared with placebo", "setting": "[2]", "result": "superior to placebos"}]}, {"smiles": "O=C1CN=C(c2ccccc2Cl)c2cc([N+](=O)[O-])ccc2N1", "note": "[clonazepam]", "values": [{"measurement": "efficacy compared with placebo", "setting": "[2]", "result": "superior to placebos"}]}, {"smiles": "N[C@@H](Cc1ccc(O)c(O)c1)C(=O)O", "note": "[L-dopa]", "values": [{"measurement": "time for which the effect has been maintained", "setting": "[3]; L-dopa", "result": 2, "unit": "years"}, {"measurement": "patients in whom treatment was effective", "setting": "[3]; doses of L-dopa of 100 mg to 200 mg", "result": "70 % of patients"}]}]}
